Results from patent publication US10987325B2, “Compositions and uses thereof for treating inflammatory diseases and probiotic compositions” (CHAIN Biotechnology Limited, priority 2016, dated 2021).

Key:
[1] = test system: ex vivo colon tissue samples; test: Ex-vivo human colon tissue model, TNF-α stimulus, Proteome Profiler Human XL Cytokine Array; assay type: cell-based; details: TNF-α 60 min then 10 mM for 24 hours, versus TNF-α alone
Experimental: To induce inflammation, explants are incubated with 100 μl of inflammatory stimulus (TNF-α 15 μg/ml) in 96-well U-bottom sterile plates. Incubate explants for one hour with […] of complete medium (DMEM containing FCS, L-glutamine and antibiotics). […] Tissue explants are then cultured at 37° C. in an atmosphere containing 5% CO2 for 24 hours. Negative controls are tissue explants cultured without stimulus nor candidate compounds (add 200 μl of complete medium). Positive controls are explants treated only with inflammatory stimulus. Following culture, remove tissue explants from culture wells, spin down plates and harvest 180 μl of the culture supernatant. Freeze supernatants and tissue explants at −80° C. Proceed to quantification of analytes of interest in supernatants and/or tissue explants. A Proteome Profiler™ Array was used to measure the relative abundance of a larger set of proteins and cytokines involved in the immune response. The experimental conditions and the preparation of the colon tissue samples was the same as described above. The Human XL Cytokine Array Kit (www.rndsystems.com), Catalog Number ARY022 was used for this experiment. Cytokines, chemokines and growth factors are extracellular signaling molecules that mediate cell to cell communication. These molecules are released from cells and have critical roles in many biological processes such as cellular growth, differentiation, gene expression, migration, immunity and inflammation. In most biological processes, multiple cytokines operate in a large network, where the action of one cytokine is regulated by the presence or absence of other cytokines. The Human XL Cytokine Array Kit is a rapid, sensitive, and economic tool to simultaneously detect cytokine differences between samples. The relative expression levels of 102 human soluble proteins can be determined without performing numerous immunoassays. Capture and control antibodies have been spotted in duplicate on nitrocellulose membranes. […]

[2] = test system: primary human intestinal organoids; test: Primary human intestinal organoids, TNF-α (40 ng/mL) induced inflammation, mRNA panel of inflammation factors by qPCR
[3] = test system: primary human intestinal organoids; test: Primary human intestinal organoids, TNFα (40 ng/mL) induced inflammation, mRNA of NF-κB and TNFα by qPCR; assay type: cell-based; details: 10 μM, 18 hours
[4] = test system: ex vivo colon tissue samples; test: Ex-vivo human colon tissue model, TNF-α stimulus, protein in culture supernatants by Luminex; assay type: cell-based
Text: Colorectal specimens can be obtained from surgical resections of intestinal tissue or from biopsies, after receiving signed informed consent from the patients. Following resection of tissue, specimens are kept in a specimen collection pot containing DMEM for transportation to the laboratory. Put the specimen in a Petri plate with some medium. Strip the muscle from the resected specimen with sterile scalpel. Transfer the remaining tissue into a new Petri plate with medium and cut the tissue into explants comprising both epithelial and muscularis mucosae (Berry […]. Methods Mol. Biol. 2011; 665: 133-60). Proceed to assay. To induce inflammation, explants are incubated with 100 μl of inflammatory stimulus (TNF-α 15 μg/ml) in 96-well U-bottom sterile plates. Incubate explants for one hour with […] of complete medium (DMEM containing FCS, L-glutamine and antibiotics). […] Tissue explants are then cultured at 37° C. in an atmosphere containing 5% CO2 for 24 hours. Negative controls are tissue explants cultured without stimulus nor candidate compounds (add 200 μl of complete medium). Positive controls are explants treated only with inflammatory stimulus. Following culture, remove tissue explants from culture wells, spin down plates and harvest 180 μl of the culture supernatant. Freeze supernatants and tissue explants at -80° C. Proceed to quantification of analytes of interest in supernatants and/or tissue explants. The Luminex method was used to determine protein concentration in culture supernatants: Luminex Protocol: In house assay was conducted by Dr Carolina Herrera at St Mary's Hospital, Paddington, London. Luminex Assay Buffer: PBS, goat serum, mouse serum, Tween 20, Tris pH 7-8. Luminex Wash Buffer: PBS, Tween-20. Procedure: […] Relative protein level [ng/mL] was determined using a standard curve.

IL-23 = test: Primary human intestinal organoids, TNF-α (60 ng/mL), IL-23 mRNA at increasing concentrations, qPCR; assay type: cell-based; details: 24 hours; for impact on IL-23 expression compared with butyrate: at 10-100 μM
Experimental: Primary human intestinal organoids were cultured for 8 weeks prior to experiments as described in […] et al. (2013) Stem Cell Reports.

[5] = TNF-α 40 ng/mL, sodium salts at 10 μM, 18 hours, versus TNF-α alone
[6] = TNF-α 60 min then 10 mM for 24 hours, versus TNF-α alone
[7] = ex vivo colon tissue, data not shown

Substance: (R)-3-hydroxybutyrate [(R)-3-HB]
- protein concentration of IL-23 (relative abundance, non-quantitative) [1]: decreased
- protein concentration of MMP9 (relative abundance, non-quantitative) [1]: decreased
- protein concentration of TNF-α (relative abundance, non-quantitative) [1]: decreased
- mRNA expression of IL-6 [2, 5]: decreased
- mRNA expression of IL-23 [2, 5]: decreased
- mRNA expression of NF-κβ [2, 5]: decreased
- mRNA expression of TNF-α [2, 5]: decreased
- mRNA expression of anti-inflammatory cytokine IL-10 [2, 5]: increased
- mRNA expression of anti-inflammatory cytokine TGF-β1 [2, 5]: increased
- effect on major protective regulators of intestinal inflammation compared with butyrate ([2]; organoids, data not shown): greater inducing effect
- effect on multiple pro-inflammatory regulators of IBD compared with butyrate ([2]; organoids, data not shown): greater reducing effect
- mRNA expression of NF-κB [3]: decreased
- mRNA expression of TNF-α [3]: decreased
- protein concentration of IL-1β [4, 6]: decreased
- protein concentration of IL-6 [4, 6]: decreased
- protein concentration of IL-12 [4, 6]: decreased
- protein concentration of anti-inflammatory cytokine IL-10 [4, 6]: increased
- effect on major protective regulators of intestinal inflammation compared with butyrate [4, 7]: greater inducing effect
- effect on multiple pro-inflammatory regulators of IBD compared with butyrate [4, 7]: greater reducing effect
- impact on IL-23 expression compared with butyrate (IL-23): greater reducing impact
- impact on IL-23 expression compared with butyrate (IL-23; listed as (R)-3HB): greater reducing effect
- concentrations effective at reducing expression of IL-23 (IL-23; sodium salts): 10 to 100 µM
